# Assay results reported in ChEMBL document CHEMBL1142392, “Synthesis and analysis of a fluorinated product analogue as an inhibitor for 1-deoxy-D-xylulose 5-phosphate reductoisomerase” (Bioorg Med Chem Lett, 2008).
# Calls of active or inactive are those of the source. The rule behind the calls is not given here.
# Test: Inactivation of DXR
structure (smiles),measurement,value
C[C@@](CO)(CF)[C@H](O)COP(=O)(O)O,Activity,Active
